These results are taken from US8435978B2, “Substituted sulfonamide compounds” (Gruenenthal GmbH, priority 2006, dated 2013).

One experiment deals with T1, human B1R receptor (Homo sapiens, UniProt P46663).
T1 construct: host or cells: CHO K1 cells (Chinese hamster ovary), stably transfected
T1 sequence (P46663 1-353): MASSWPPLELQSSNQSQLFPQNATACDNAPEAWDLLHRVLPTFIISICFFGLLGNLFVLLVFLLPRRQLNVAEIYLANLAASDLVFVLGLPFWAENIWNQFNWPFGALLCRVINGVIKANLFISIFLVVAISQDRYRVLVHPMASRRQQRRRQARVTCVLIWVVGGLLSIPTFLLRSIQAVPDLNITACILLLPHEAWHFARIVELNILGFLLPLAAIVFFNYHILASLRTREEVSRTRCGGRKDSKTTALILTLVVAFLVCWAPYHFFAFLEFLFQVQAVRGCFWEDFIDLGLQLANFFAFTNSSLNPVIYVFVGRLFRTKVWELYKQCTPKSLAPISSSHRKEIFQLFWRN
Kind of experiment: Functional study on the bradykinin receptor 1 (B1R), FLIPR Ca2+ assay, hB1R cells. Conditions: CHO-K1, test substance 10 μM, agonist Lys-Des-Arg9-bradykinin 0.5 nM, % inhibition compared with the maximum achievable inhibition, read-out: B1R Antagonism, human [10 μM] % Inhibition. Type of experiment: cell-based. The gist of the method:
(§1)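 CHO K1 cells stably expressing human or rat B1R were loaded with Fluo-4 and read on a FLIPR (ex 488/em 540 nm, peak fluorescence). Test compounds at 10 μM were added first, then after 10 min agonist: Lys-Des-Arg9-bradykinin 0.5 nM for hB1R, Des-Arg9-bradykinin 100 nM for rB1R; % inhibition versus maximum inhibition.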

A further experiment concerns the target T2, B1R receptor of the rat (Rattus norvegicus, UniProt P97583).
T2 construct: host or cells: CHO K1 cells (Chinese hamster ovary), stably transfected
T2 sequence (P97583 1-337): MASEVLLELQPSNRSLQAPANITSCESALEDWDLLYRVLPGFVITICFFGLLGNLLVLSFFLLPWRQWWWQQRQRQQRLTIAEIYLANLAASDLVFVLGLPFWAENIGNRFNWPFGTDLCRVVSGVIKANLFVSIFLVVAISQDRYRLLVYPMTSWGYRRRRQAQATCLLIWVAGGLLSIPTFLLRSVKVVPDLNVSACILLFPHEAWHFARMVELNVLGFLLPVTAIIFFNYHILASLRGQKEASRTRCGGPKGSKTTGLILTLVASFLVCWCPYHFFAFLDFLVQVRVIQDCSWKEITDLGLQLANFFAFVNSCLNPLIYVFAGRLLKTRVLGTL
Kind of experiment: Functional study on the bradykinin receptor 1 (B1R), FLIPR Ca2+ assay, rB1R cells. In kind it is cell-based. Conditions: CHO-K1, test substance 10 μM, agonist Des-Arg9-bradykinin 100 nM, % inhibition compared with the maximum achievable inhibition, read-out: B1R Antagonism, rat [10 μM] % Inhibition. The essentials:
as §1

SMILES strings stand for the structures.

One may read the inhibition as the change of the read-out against control, counted positive when it falls. Consider `Cc1cc(C)c(S(=O)(=O)N2CCCCC2COCC(=O)N2CCN(CC3CCN(C)CC3)CC2)c(C)c1` (centres unmarked) [Example 232, 2-((1-(mesitylsulfonyl)piperidin-2-yl)methoxy)-1-(4-((1-methylpiperidin-4-yl)methyl)piperazin-1-yl)ethanone], for which the inhibition at 10 µM at human B1R receptor came out at 102%; at B1R receptor of the rat, 90%.
In the same order, the values of `O=C(COCC1Cc2ccccc2CN1S(=O)(=O)c1ccc(Cl)cc1Cl)N1CCC(N2CCOCC2)CC1` (centres unmarked) [Example 65, 2-((2-(2,4-dichlorophenylsulfonyl)-1,2,3,4-tetrahydroisoquinolin-3-yl)methoxy)-1-(4-morpholinopiperidin-1-yl)ethanone] are 55.4% and 93.2%.
Consider `COc1ccc(S(=O)(=O)N2CCCCC2CCOCC(=O)N2CCN(CCN3CCCCC3)CC2)cc1` (centres unmarked) [Example 221, 2-(2-(1-(4-methoxyphenylsulfonyl)piperidin-2-yl)ethoxy)-1-(4-(2-(piperidin-1-yl)ethyl)piperazin-1-yl)ethanone], for which the inhibition at 10 µM was 38% on human B1R receptor and 89.6% on B1R receptor of the rat.
Consider `O=C(COCC1Cc2ccccc2CN1S(=O)(=O)c1ccc(Cl)cc1Cl)N1CCC(N2CCCCC2)CC1` (centres unmarked) [Example 9, 1-(1,4′-bipiperidin-1′-yl)-2-((2-(2,4-dichlorophenylsulfonyl)-1,2,3,4-tetrahydro-isoquinolin-3-yl)methoxy)ethanone], for which the inhibition at 10 µM on human B1R receptor stood at 102%; at B1R receptor of the rat it was 85.3%.
As to `CN1CCN(C(=O)COCC2CCCCN2S(=O)(=O)c2c(Cl)cccc2Cl)C(c2ccccc2)C1` (centres unmarked) [Example 455, 2-((1-(2,6-dichlorophenylsulfonyl)piperidin-2-yl)methoxy)-1-(4-methyl-2-phenylpiperazin-1-yl)ethanone], the inhibition at 10 µM on human B1R receptor was 103%; at B1R receptor of the rat, 99.3%.
Turning to `COc1cc(C)c(S(=O)(=O)N2CCCCC2COCC(=O)N2CCN(c3ccc(Cl)c(Cl)c3)CC2)c(C)c1` (centres unmarked) [Example 378, 1-(4-(3,4-dichlorophenyl)piperazin-1-yl)-2-((1-(4-methoxy-2,6-dimethylphenylsulfonyl)piperidin-2-yl)methoxy)ethanone], the inhibition at 10 µM is 63.4% at human B1R receptor and 98.8% on B1R receptor of the rat.
As for `COc1cc(C)c(S(=O)(=O)N2CCCCC2COCC(=O)NCCC2CCN(c3ccncc3)CC2)c(C)c1` (centres unmarked) [Example 143, 2-((1-(4-methoxy-2,6-dimethylphenylsulfonyl)piperidin-2-yl)methoxy)-N-(2-(1-(pyridin-4-yl)piperidin-4-yl)ethyl)acetamide], the inhibition at 10 µM at human B1R receptor was 99.9%; on B1R receptor of the rat, 99.3%.
Consider `COc1cc(C)c(S(=O)(=O)N2CCCCC2COCC(=O)NCCCN2C(C)CCCC2C)c(C)c1` (centres unmarked) [Example 260, N-(3-(2,6-dimethylpiperidin-1-yl)propyl)-2-((1-(4-methoxy-2,6-dimethylphenylsulfonyl)piperidin-2-yl)methoxy)acetamide], for which the inhibition at 10 µM worked out at 102% on human B1R receptor and 60.6% at B1R receptor of the rat.
As to `CN(C(=O)COCC1Cc2ccccc2CN1S(=O)(=O)c1ccc(Cl)cc1Cl)C1CCN(Cc2ccccc2)C1` (centres unmarked) [Example 78, N-(1-benzyl-pyrrolidin-3-yl)-2-[2-(2,4-dichloro-phenylsulfonyl)-1,2,3,4-tetrahydro-isoquinolin-3-ylmethoxy]-N-methyl-acetamide], the values for the inhibition at 10 µM at human B1R receptor and at B1R receptor of the rat were 45.7% and 35.2%, respectively.
In the same order, the values of `COc1cc(C)c(S(=O)(=O)N2CCCC2COCC(=O)NCC(c2ccc(C(F)(F)F)cc2)N(C)C)c(C)c1` (centres unmarked) [Example 495, N-(2-(dimethylamino)-2-(4-(trifluoromethyl)phenyl)ethyl)-2-((1-(4-methoxy-2,6-dimethylphenylsulfonyl)pyrrolidin-2-yl)methoxy)acetamide] are 30.7% and 95.7%.
For `COc1cc(C)c(S(=O)(=O)N2CCCC2COCC(=O)N2CCC(N3CCOCC3)CC2)c(C)c1` (centres unmarked) [Example 519, 2-((1-(4-methoxy-2,6-dimethylphenylsulfonyl)pyrrolidin-2-yl)methoxy)-1-(4-morpholinopiperidin-1-yl)ethanone] the same measures were 81.9% and 103%.
In the same order, the values of `COc1cc(C)c(S(=O)(=O)N2CCCCC2COCC(=O)NCc2cccnc2)c(C)c1` (centres unmarked) [Example 345, 2-((1-(4-methoxy-2,6-dimethylphenylsulfonyl)piperidin-2-yl)methoxy)-N-(pyridin-3-ylmethyl)acetamide] are 22.3% and 95.9%.
With `COc1cc(C)c(S(=O)(=O)N2CCCCC2COCC(=O)Nc2cc(-c3ccccc3)[nH]n2)c(C)c1` (centres unmarked) [Example 536, 2-((1-(4-methoxy-2,6-dimethylphenylsulfonyl)piperidin-2-yl)methoxy)-N-(5-phenyl-1H-pyrazol-3-yl)acetamide], the inhibition at 10 µM came to 63.1% at human B1R receptor and 107% at B1R receptor of the rat.
For `COc1ccccc1N1CCN(C(=O)COCC2CCCCN2S(=O)(=O)c2c(Cl)cccc2Cl)CC1` (centres unmarked) [Example 498, 2-((1-(2,6-dichlorophenylsulfonyl)piperidin-2-yl)methoxy)-1-(4-(2-methoxyphenyl)piperazin-1-yl)ethanone], the inhibition at 10 µM is 94.2% on human B1R receptor and 96.7% on B1R receptor of the rat.
Take `CCc1ccc(CC2CCCN2C(=O)COCC2CCCN2S(=O)(=O)c2c(C)cc(OC)cc2C)nc1` (centres unmarked) [Example 490, 1-(2-((5-ethylpyridin-2-yl)methyl)pyrrolidin-1-yl)-2-((1-(4-methoxy-2,6-dimethylphenylsulfonyl)pyrrolidin-2-yl)methoxy)ethanone]: the inhibition at 10 µM on human B1R receptor was determined as 93.5%; at B1R receptor of the rat it was 103%.
Take `COc1ccc(N2CCN(C(=O)COCC3CCCN3S(=O)(=O)c3c(Cl)cc(Cl)cc3Cl)CC2)cc1` (centres unmarked) [Example 328, 1-(4-(4-methoxyphenyl)piperazin-1-yl)-2-((1-(2,4,6-trichlorophenylsulfonyl)pyrrolidin-2-yl)methoxy)ethanone]: the inhibition at 10 µM at human B1R receptor was determined as 104%; at B1R receptor of the rat, 102%.
In the case of `CN1CCN(C2CCN(C(=O)COCC3Cc4ccccc4CN3S(=O)(=O)c3ccc(Cl)cc3Cl)CC2)CC1` (centres unmarked) [Example 233, 2-((2-(2,4-dichlorophenylsulfonyl)-1,2,3,4-tetrahydroisoquinolin-3-yl)methoxy)-1-(4-(4-methylpiperazin-1-yl)piperidin-1-yl)ethanone], the inhibition at 10 µM is 102% on human B1R receptor and 86.7% at B1R receptor of the rat.
Regarding `CN(C(=O)COCC1CCCCN1S(=O)(=O)c1c(Cl)cc(Cl)cc1Cl)C(CN1CCCC1)c1ccccc1` (centres unmarked) [Example 392, N-methyl-N-(1-phenyl-2-(pyrrolidin-1-yl)ethyl)-2-((1-(2,4,6-trichlorophenylsulfonyl)piperidin-2-yl)methoxy)acetamide], the inhibition at 10 µM at human B1R receptor came out at 101%; at B1R receptor of the rat, 99.1%.
On to `COc1cc(C)c(S(=O)(=O)N2CCCCC2COCC(=O)N(Cc2ccccc2)c2cc(C)ccn2)c(C)c1` (centres unmarked) [Example 507, N-benzyl-2-((1-(4-methoxy-2,6-dimethylphenylsulfonyl)piperidin-2-yl)methoxy)-N-(4-methylpyridin-2-yl)acetamide], for which the inhibition at 10 µM was -10.1% at human B1R receptor and 102% on B1R receptor of the rat.
In the case of `Cc1cc(Br)cc(C)c1S(=O)(=O)N1CCCCC1COCC(=O)N1CCN(c2ccncc2)CC1` (centres unmarked) [Example 150, 2-((1-(4-bromo-2,6-dimethylphenylsulfonyl)piperidin-2-yl)methoxy)-1-(4-(pyridin-4-yl)piperazin-1-yl)ethanone], the inhibition at 10 µM on human B1R receptor is 98.3%; on B1R receptor of the rat it was 99.1%.
On to `CN1CCN(Cc2ccc(CNC(=O)COCC3CCCCN3S(=O)(=O)c3c(Cl)cc(Cl)cc3Cl)cc2)CC1` (centres unmarked) [Example 15, N-[4-(4-methyl-piperazin-1-ylmethyl)-benzyl]-2-[1-(2,4,6-trichloro-phenylsulfonyl)-piperidin-2-ylmethoxy]-acetamide], for which the inhibition at 10 µM at human B1R receptor was 96%; on B1R receptor of the rat, 92.5%.
In the same order, the values of `COc1cc(C)c(S(=O)(=O)N2CCCCC2COCC(=O)N2CCN(CCc3ccccc3)CC2)c(C)c1` (centres unmarked) [Example 373, 2-((1-(4-methoxy-2,6-dimethylphenylsulfonyl)piperidin-2-yl)methoxy)-1-(4-phenethylpiperazin-1-yl)ethanone] are 104% and 98.8%.
